Data as given in US7148232B2, “Oxazolo, thiazolo and selenazolo [4,5-c]-quinolin-4-amines and analogs thereof” (3M Innovative Properties Company, priority 1998, dated 2006).

Tests used:
interferon (α) [1] = assay: Cytokine induction in human cells: interferon (α) secreted by PBMCs (ELISA or bioassay); type: cell-based; conditions: 18 to 24 hours
Experimental: (§1) An in vitro human blood cell system was used to assess cytokine induction by compounds of the invention.
(§2) Whole blood is collected by venipuncture into EDTA vacutainer tubes from healthy human donors. […] The PBMC suspension is added to 48 well flat bottom sterile tissue culture plates (Costar, Cambridge, Mass. or Becton Dickinson Labware, Lincoln Park, N.J.) containing an equal volume of RPMI complete media containing test compound.
(§3) The compounds are solubilized in dimethyl sulfoxide (DMSO). The DMSO concentration should not exceed a final concentration of 1% for addition to the culture wells.
(§4) The solution of test compound is added at 60 μM to the first well containing RPMI complete and serial 3 fold dilutions are made. The PBMC suspension is then added to the wells in an equal volume, bringing the test compound concentrations to the desired range (0.12 to 30 μM). The final concentration of PBMC suspension is 1.5–2×10^6 cells/mL. The plates are covered with sterile plastic lids, mixed gently and then incubated for 18 to 24 hours at 37° C. in a 5% carbon dioxide atmosphere.
(§5) Following incubation the plates are centrifuged for 5–10 minutes at 1000 rpm (˜200×g) at 4° C. The cell culture supernatant is removed with a sterile polypropylene pipet and transferred to sterile polypropylene tubes. Samples are maintained at −30 to −70° C. until analysis. The samples are analyzed for interferon (α) by either ELISA or bioassay and for tumor necrosis factor (α) by ELISA
Interferon is determined by bioassay using A549 human lung carcinoma cells challenged with encephalomyocarditis. […] Briefly stated the method is as follows: A549 cells are incubated with dilutions of samples or a standard interferon at 37° C. for 24 hours. The incubated cells are then infected with an inoculum of encephalomyocarditis virus. The infected cells are incubated for an additional 24 hours at 37° C. before evaluating for viral cytopathic effect. The viral cytopathic effect is quantified by staining with crystal violet followed by visual scoring of the plates. Results are expressed as alpha reference units/mL based on the value obtained for NIH Human Leukocyte IFN standard.
Interferon (α) concentration is determined by ELISA using a Human Multi-Species kit from PBL Biomedical Laboratories, New Brunswick, N.J. according to the manufacturer's instructions.

interferon (α) [2] = assay: Interferon (α) induction in human cells (in vitro human blood cell system, interferon by bioassay); type: cell-based; conditions: human PBM's, 48 hours
[3] = test system: tumor necrosis factor (α); assay: Cytokine induction in human cells: tumor necrosis factor (α) secreted by PBMCs (ELISA); type: cell-based; conditions: 18 to 24 hours
Experimental: as §1, §2, §3, §4, §5
Tumor necrosis factor (α) (TNF) concentration is determined using ELISA kits available from Genzyme, Cambridge, Mass.; R&D Systems, Minneapolis, Minn.; or Pharmingen, San Diego, Calif. according to the manufacturer's instructions.

SMILES | Interferon (α) Induction (interferon (α) [1]; Dose Concentration 0.12 μM) | Interferon (α) Induction (interferon (α) [1]; Dose Concentration 0.37 μM) | Interferon (α) Induction (interferon (α) [1]; Dose Concentration 1.11 μM) | Interferon (α) Induction (interferon (α) [1]; Dose Concentration 3.33 μM) | Interferon (α) Induction (interferon (α) [1]; Dose Concentration 10 μM) | Interferon (α) Induction (interferon (α) [1]; Dose Concentration 30 μM) | Interferon (α) Induction in Human Cells (interferon (α) [2]; Dose Concentration 0.01 μg/mL) | Interferon (α) Induction in Human Cells (interferon (α) [2]; Dose Concentration 0.05 μg/mL) | Interferon (α) Induction in Human Cells (interferon (α) [2]; Dose Concentration 0.10 μg/mL) | Interferon (α) Induction in Human Cells (interferon (α) [2]; Dose Concentration 0.50 μg/mL) | Interferon (α) Induction in Human Cells (interferon (α) [2]; Dose Concentration 1.0 μg/mL) | Interferon (α) Induction in Human Cells (interferon (α) [2]; Dose Concentration 5.0 μg/mL) | Interferon (α) Induction in Human Cells (interferon (α) [2]; Dose Concentration 10.0 μg/mL) | Tumor Necrosis Factor Induction ([3]; Dose Concentration 0.12 μM) | Tumor Necrosis Factor Induction ([3]; Dose Concentration 0.37 μM) | Tumor Necrosis Factor Induction ([3]; Dose Concentration 1.11 μM) | Tumor Necrosis Factor Induction ([3]; Dose Concentration 3.33 μM) | Tumor Necrosis Factor Induction ([3]; Dose Concentration 10 μM) | Tumor Necrosis Factor Induction ([3]; Dose Concentration 30 μM) | melting point [°C] | further results
Nc1nc2ccccc2c2sc(CCc3ccccc3)nc12 [Example 24, 2-(2-Phenyl-1-ethyl)thiazolo[4,5-c]quinolin-4-amine] | − | − | − | − | − | − | − | − | − | − | − | − | + | − | − | − | − | − | + | 158 to 159 | Interferon (α) Induction in Human Cells (interferon (α) [2]; Dose Concentration 25.0 μg/mL): +; Interferon (α) Induction in Human Cells (interferon (α) [2]; Dose Concentration 50.0 μg/mL): +
CCCc1nc2c(N)nc3ccc(N)cc3c2s1 [Example 42, 2-Propylthiazolo[4,5-c]quinolin-4,8-diamine] | − | − | − | − | + | − | − | − | − | + | + | + |  | − | − | + | + | + | + | 190 to 192 | 
Nc1nc2ccccc2c2sc(N3CCOCC3)nc12 [Example 53, 2-(4-Morpholino)thiazolo[4,5-c]quinolin-4-amine] | − | − | − | − | − | − | − | − | − | − | − | − | − | − | − | − | − | − | − | 225 to 227 | Interferon (α) Induction in Human Cells (interferon (α) [2]; Dose Concentration 25.0 μg/mL): +; Interferon (α) Induction in Human Cells (interferon (α) [2]; Dose Concentration 50.0 μg/mL): +
